Read-outs that look alike come from different tables or passages of the source.
How the values were obtained:
mouse GnRH receptor = molecular target: T1, mouse GnRH receptor (Mus musculus, UniProt Q01776); test: Radioligand binding, 125I-GnRH-A, 293 cells expressing mouse GnRH receptors
T1 construct: expressed in transfected cells; host or cells: 293 cells
T1 sequence (Q01776 1-327): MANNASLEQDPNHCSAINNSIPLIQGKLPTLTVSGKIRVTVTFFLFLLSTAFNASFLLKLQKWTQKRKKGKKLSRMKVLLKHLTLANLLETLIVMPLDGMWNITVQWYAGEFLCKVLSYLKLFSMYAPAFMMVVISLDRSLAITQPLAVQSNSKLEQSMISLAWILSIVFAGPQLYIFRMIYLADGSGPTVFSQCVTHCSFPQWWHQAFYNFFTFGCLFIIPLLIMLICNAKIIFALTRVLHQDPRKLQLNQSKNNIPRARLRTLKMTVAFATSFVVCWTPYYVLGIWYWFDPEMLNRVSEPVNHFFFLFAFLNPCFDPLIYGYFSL
Method in brief: (§1)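 Bound label captured on 0.1% polyethyleneimine-treated GF/C filters, washed three times with PBS, counted. IC50 derived; identical set-up for every species.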

rat GnRH receptor [1] = molecular target: T2, rat GnRH receptor (Rattus norvegicus, UniProt P30969); test: Microphysiometry, extracellular acidification rate, GGH3 cells; type: cell-based; details: agonist alone
T2 sequence (P30969 1-327): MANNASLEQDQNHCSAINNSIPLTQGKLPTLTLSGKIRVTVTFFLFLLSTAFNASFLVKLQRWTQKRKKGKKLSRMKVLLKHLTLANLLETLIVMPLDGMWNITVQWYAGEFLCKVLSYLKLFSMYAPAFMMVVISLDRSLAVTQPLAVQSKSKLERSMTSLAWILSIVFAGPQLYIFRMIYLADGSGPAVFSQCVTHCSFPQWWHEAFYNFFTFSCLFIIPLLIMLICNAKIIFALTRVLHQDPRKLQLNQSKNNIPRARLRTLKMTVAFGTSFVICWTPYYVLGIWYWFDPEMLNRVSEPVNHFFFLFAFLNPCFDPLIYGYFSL
Procedure: These cells have been extensively characterized previously (Kaiser et al., 1997). These cells were grown in low glucose Dulbecco's modified Eagle's medium (DMEM) containing: 100U/mL penicillin/streptomycin, 0.6 g/L G418 and 10% beat-inactivated fetal bovine serum
This cell line was provided by Dr. Stuart Sealfon, Mount Sinai Medical School New York, N.Y. These cells were grown in DMEM supplemented with 0.2 g/L G418 100 U/ml penicillin/streptomycin and 10% FBS. Both GGH3 and hGnRH-R/293 cells were utilized for both for both total inositol phosphate measurement and for microphysiometry assessment of compound efficacy.
The Cytosensor®Microphysiometer (Molecular Devices, Sunnyvale, Calif.) is a real-time, noninvasive, nonradioactive semiconductor-based system for monitoring the cellular responses to various stimuli. It is based on a pH-sensitive silicon sensor, the light-addressable potentiometric sensor which forms part of a microvolume flow chamber in which cultured cells are immobilized (Pitchford et al., 1995; Parce et al., 1989; Owicki, et al. 1994).
GGH3 cells were seeded in low-buffered minimal essential media (MEM, Sigma) containing 25 mM NaCl and 0.1% BSA at a density of 500,000 cells/capsule onto the polycarbonate membrane (3 μm porosity) of cell capsule cups (Molecular Devices, Sunnyvale, Calif.). Capsule cups were transferred to sensor chambers where cells were held in close apposition to a silicon sensor within a sensor chamber, which measures small changes in pH in the microvolume of the sensor chamber. Low-buffered medium was pumped continuously across the cells at a rate of approximately 100 μl/min from one of two fluid reservoirs. A selection valve determined which reservoir from which fluid was perifused onto the cells.
The Cytosensor®Microphysiometer generates a voltage signal, which is a linear function of pH, every second. In order to measure acidification rates, flow to the sensor chamber containing the cells was periodically interrupted, allowing for excreted acidic metabolites to build up in the extracellular fluid of the cells. In these experiments, cells were maintained at 37° C. on a two minute flow cycle with cells being perfused with media for 80 seconds followed by 40 seconds in which the flow of media was stopped. During this 40 second interval, acidification rates were measured for a 30 sec interval. In this fashion, a single acidification rate was calculated every two min. The Cytosensor®Microphysiometer device contains eight such sensor units, allowing for eight simultaneous experiments to be performed. Each unit was individually programmed utilizing a computer linked to the system.
GGH3 cells were initially equilibrated in the low-buffered MEM media for a period of 30-60 min in which basal acidification rates (measured as μV/sec), in the absence of any stimuli, were monitored. When the basal rate of acidification changed by less than ten percent over a period of twenty minutes, experiments were initiated. Time course experiments were performed to determine the optimal time for agonist exposure prior to acidification rate measurement and the duration of exposure needed to obtain peak acidification responses to various agonists. From these time course experiments, it was determined that cells should be exposed to GnRH peptide agonists at least one minute prior to collection of acidification rate data. Peak acidification rates usually occurred in the first two-minute exposure cycle. In order to capture the peak response to GnRH, cells were exposed to the agonist for a total of four minutes. […] All compounds were tested in a final concentration of 1% DMSO in low-buffered MEM media described above.

bovine GnRH receptor = molecular target: T3, bovine GnRH receptor (Bos taurus, UniProt P32236); test: Radioligand binding, 125I-GnRH-A, bovine pituitary membranes; details: means ± SE of at least three experiments performed in duplicate; read-out: Bovine IC50
T3 construct: membranes were prepared from bovine pituitary; from tissue; host or cells: bovine pituitary
T3 sequence (P32236 1-328): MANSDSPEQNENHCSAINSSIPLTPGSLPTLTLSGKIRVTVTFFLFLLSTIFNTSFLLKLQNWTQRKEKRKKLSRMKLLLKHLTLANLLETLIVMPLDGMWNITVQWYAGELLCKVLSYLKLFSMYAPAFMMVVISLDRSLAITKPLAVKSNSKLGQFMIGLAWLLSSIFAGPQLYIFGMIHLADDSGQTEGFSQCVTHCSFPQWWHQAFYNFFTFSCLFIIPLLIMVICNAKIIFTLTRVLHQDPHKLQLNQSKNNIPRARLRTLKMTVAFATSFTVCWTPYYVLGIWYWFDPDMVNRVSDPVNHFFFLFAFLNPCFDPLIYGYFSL
Method in brief: as §1

D2 Dopamine = D2 Dopamine (Homo sapiens, UniProt P14416); test: Selectivity: D2 Dopamine
[2] = Metabolism rate, pmol/min/mg at 1 μM, human; type: in vitro ADME; details: 1 μM compound
[3] = Pharmacokinetic studies / bioavailability in rats; type: in vivo, rat; details: for Cmax / Tmax / half-life: rat, plasma; for Cmax / Tmax: po
5-HT7 = 5-HT7 (Homo sapiens, UniProt P34969); test: Selectivity: 5-HT7
[4] = Metabolism rate, pmol/min/mg at 1 μM, rat male; type: in vitro ADME; details: 1 μM compound
human GnRH receptor = molecular target: T4, human GnRH receptor (Homo sapiens, UniProt P30968); test: Radioligand binding, 125I-GnRH-A displacement, membranes of HEK 293 cells with human GnRH receptor; details: read-out: hGnRH IC50
T4 construct: expressed in transfected cells; host or cells: HEK 293 (hGnRH-R/293, from Dr. Stuart Sealfon)
T4 sequence (P30968 1-328): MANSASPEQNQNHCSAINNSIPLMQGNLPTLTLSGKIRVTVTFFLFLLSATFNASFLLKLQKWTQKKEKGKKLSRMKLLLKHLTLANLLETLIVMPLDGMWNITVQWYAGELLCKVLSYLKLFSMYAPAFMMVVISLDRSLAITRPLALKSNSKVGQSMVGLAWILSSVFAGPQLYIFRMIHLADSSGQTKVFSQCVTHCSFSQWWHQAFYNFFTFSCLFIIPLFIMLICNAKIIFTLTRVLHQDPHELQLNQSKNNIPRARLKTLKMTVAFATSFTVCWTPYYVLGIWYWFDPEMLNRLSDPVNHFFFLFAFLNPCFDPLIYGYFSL
Method in brief: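 Bound tracer was separated by filtration through polyethyleneimine-soaked GF/C filters and counted by liquid scintillation. IC50 from curve fitting; other species were tested under the same conditions.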

rat GnRH receptor [5] = molecular target: T2, rat GnRH receptor; test: Radioligand binding, 125I-GnRH-A, rat pituitary membranes; parameters: membranes were prepared from rat pituitary; from tissue; host or cells: rat pituitary; details: read-out: rGnRH IC50
Method in brief: as §1

[6] = Metabolism rate, pmol/min/mg at 1 μM, dog; type: in vitro ADME; details: 1 μM compound
[7] = Metabolism rate, pmol/min/mg at 1 μM, rat female; type: in vitro ADME; details: 1 μM compound
[8] = Metabolism rate, pmol/min/mg at 1 μM, monkey; type: in vitro ADME; details: 1 μM compound
[9] = female, 10 mg/kg, rat female, p.o. 10 mg/kg, 5 mg/ml solution in 10% DMSO 10% cremophor 80% saline
[10] = male, 20 mg/kg, rat male, p.o. 20 mg/kg, vehicle per footnote (DMSO/cremophor/saline)

Sequence of D2 Dopamine (P14416 whole entry): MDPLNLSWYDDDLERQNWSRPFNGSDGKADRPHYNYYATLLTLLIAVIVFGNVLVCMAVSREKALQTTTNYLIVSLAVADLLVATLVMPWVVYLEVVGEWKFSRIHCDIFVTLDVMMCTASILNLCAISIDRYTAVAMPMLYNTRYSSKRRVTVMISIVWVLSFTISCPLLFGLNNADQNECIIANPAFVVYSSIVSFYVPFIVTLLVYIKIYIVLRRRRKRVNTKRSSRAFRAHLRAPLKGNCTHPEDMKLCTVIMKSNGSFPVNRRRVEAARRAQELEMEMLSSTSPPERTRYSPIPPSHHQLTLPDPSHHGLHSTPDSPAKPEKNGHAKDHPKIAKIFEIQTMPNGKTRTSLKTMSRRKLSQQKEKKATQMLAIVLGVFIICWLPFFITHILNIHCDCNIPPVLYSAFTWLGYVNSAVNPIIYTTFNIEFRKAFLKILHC
Sequence of 5-HT7 (P34969 whole entry, species assumed): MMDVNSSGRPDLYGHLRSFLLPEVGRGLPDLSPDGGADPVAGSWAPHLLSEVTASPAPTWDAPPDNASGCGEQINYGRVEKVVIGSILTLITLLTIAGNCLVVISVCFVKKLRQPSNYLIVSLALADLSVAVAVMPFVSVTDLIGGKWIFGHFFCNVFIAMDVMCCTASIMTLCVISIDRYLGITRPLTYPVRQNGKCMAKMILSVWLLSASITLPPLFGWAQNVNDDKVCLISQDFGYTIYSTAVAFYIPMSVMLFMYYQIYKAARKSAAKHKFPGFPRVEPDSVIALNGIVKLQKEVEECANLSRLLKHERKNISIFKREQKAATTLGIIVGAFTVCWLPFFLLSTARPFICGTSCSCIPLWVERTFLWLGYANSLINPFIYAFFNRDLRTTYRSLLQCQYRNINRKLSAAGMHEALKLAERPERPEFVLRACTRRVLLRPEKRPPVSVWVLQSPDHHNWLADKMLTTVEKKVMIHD

With `CC(C)C[C@H](NC(=O)CNC(=O)[C@H](Cc1ccc(O)cc1)NC(=O)[C@H](CO)NC(=O)[C@H](Cc1c[nH]c2ccccc12)NC(=O)[C@H](Cc1c[nH]cn1)NC(=O)[C@@H]1CCC(=O)N1)C(=O)N[C@@H](CCCNC(=N)N)C(=O)N1CCC[C@H]1C(=O)NCC(N)=O` [GnRH, reference compound] the IC50 (mouse GnRH receptor; Mouse IC50, means ± SE of at least three experiments performed in duplicate) was 11 ± 2 nM, the “extracellular acidification rate of GGH3 cells” value (rat GnRH receptor [1]) was “dose-dependent increase in the extracellular acidification rate” and the IC50 (bovine GnRH receptor) was 13 ± 2 nM.
In the case of `COc1cccc(OC)c1NC(=O)c1ccc(Cc2c(C)cc(C)c(Br)c2C)o1` [Compound 140], the IC50 (mouse GnRH receptor; read-out: mGnRH IC50) is reported as 320 nM, the Ki (D2 Dopamine) is reported as 2300 nM and the “Human pmol/min/mg 1 μM” value [2] is reported as 497 pmol/min/mg. The Cmax [3, 9] was 440 nM, the Tmax [3, 9] was 1 h and the half-life ([3]; female, rat female) was 4.6 h. The Fp.o. ([3]; rat female, 5 mg/ml solution in 10% DMSO 10% cremophor 80% saline) was 59% (10 mg/kg)^10, the Ki (5-HT7) was greater than 4400 nM and the “Rat male pmol/min/mg 1 μM” value [4] was 2521 pmol/min/mg. It also gave an IC50 (human GnRH receptor) of 110 nM and an IC50 (rat GnRH receptor [5]) of 530 nM.
For `Cc1cc2c(cc1Cc1ccc(C(=O)NCc3cccc(CNc4nccc(NC[C@@H]5CCCO5)n4)c3)o1)C(C)(C)CCC2(C)C` [Compound 148], the IC50 (mouse GnRH receptor; read-out: mGnRH IC50) was 1.3 nM, the “Dog pmol/min/mg 1 μM” value [6] was 1960 pmol/min/mg and the “Human pmol/min/mg 1 μM” value [2] was 248 pmol/min/mg. The half-life ([3]; male, iv, 10 mg/kg, rat male) was 1.1 h, the Cmax [3, 10] was 30 nM and the Tmax [3, 10] was 2 h. The Fp.o. ([3]; rat male, p.o. 20 mg/kg, vehicle per footnote (DMSO/cremophor/saline)) was 3% (20 mg/kg)^1, the “Rat male pmol/min/mg 1 μM” value [4] was 1414 pmol/min/mg and the IC50 (human GnRH receptor) was 12 nM. The “Rat female pmol/min/mg 1 μM” value [7] was 133 pmol/min/mg, the IC50 (rat GnRH receptor [5]) was 1.6 nM and the “Monkey pmol/min/mg 1 μM” value [8] was 5019 pmol/min/mg.
